Laboratory results from ChEMBL document CHEMBL4321821, “Opioids as Substrates and Inhibitors of the Genetically Highly Variable Organic Cation Transporter OCT1” (J Med Chem, 2019).
Active and inactive are the calls of the source. No cut-off for these calls is given here.

Tests used:
[1] = biological target: T1, OCT1 (SLC22A1) (Homo sapiens, UniProt O15245); assay: Substrate activity at human OCT1 expressed in HEK293 cells assessed as increase in compound uptake at 0.05 uM incubated for 2 mins by LC-MS/MS analysis relative to control empty vector transfected cells; assay type: cell-based; conditions: HEK293 cells that express human OCT1, read-out: FC
T1 sequence (O15245 whole entry): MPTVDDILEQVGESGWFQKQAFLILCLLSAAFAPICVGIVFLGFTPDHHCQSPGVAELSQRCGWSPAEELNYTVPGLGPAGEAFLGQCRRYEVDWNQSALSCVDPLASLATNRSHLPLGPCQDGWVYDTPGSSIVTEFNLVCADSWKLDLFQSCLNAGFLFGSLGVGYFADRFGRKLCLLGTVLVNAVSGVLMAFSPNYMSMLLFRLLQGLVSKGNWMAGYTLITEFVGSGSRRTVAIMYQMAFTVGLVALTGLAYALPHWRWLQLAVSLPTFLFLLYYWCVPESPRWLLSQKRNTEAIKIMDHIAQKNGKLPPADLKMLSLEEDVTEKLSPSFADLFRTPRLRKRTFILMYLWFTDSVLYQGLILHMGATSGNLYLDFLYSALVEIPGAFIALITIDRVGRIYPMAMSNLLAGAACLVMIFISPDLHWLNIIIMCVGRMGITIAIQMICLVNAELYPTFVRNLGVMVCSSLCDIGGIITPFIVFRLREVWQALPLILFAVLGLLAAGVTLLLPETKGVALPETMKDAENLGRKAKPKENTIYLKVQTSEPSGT

[2] = biological target: T1, OCT1 (SLC22A1); assay: Substrate activity at human OCT1 expressed in HEK293 cells assessed as increase in compound uptake at 0.1 uM incubated for 2 mins by LC-MS/MS analysis relative to control empty vector transfected cells; assay type: cell-based; conditions: HEK293 cells that express human OCT1, read-out: FC
[3] = biological target: T1, OCT1 (SLC22A1); assay: Substrate activity at human OCT1 expressed in HEK293 cells assessed as increase in compound uptake at 0.5 uM incubated for 2 mins by LC-MS/MS analysis relative to control empty vector transfected cells; assay type: cell-based; conditions: HEK293 cells that express human OCT1, read-out: FC
[4] = biological target: T2, Solute carrier family 22 member 1 (Homo sapiens, UniProt O15245); assay: Inhibition of human OCT1 expressed in HEK293 cells assessed as reduction in ASP+ substrate uptake by microplate reader based analysis; assay type: cell-based
T2 sequence (O15245 whole entry): T1 sequence (O15245 whole entry)

[5] = Cmax in human at 50 mg, iv; assay type: ADME; set-up: dose 50 mg, route intravenous; conditions: in vivo
[6] = Unbound Cmax in human at 50 mg, iv; assay type: ADME; conditions: in vivo
[7] = Unbound maximal portal vein concentration of in human at 50 mg, iv; assay type: ADME, tissue-based; conditions: in vivo
[8] = Ratio of unbound Cmax in human at 50 mg, iv to inhibition of human OCT1 expressed in HEK293 cells assessed as reduction in ASP+ substrate uptake by microplate reader based analysis; assay type: ADME, organism-based; conditions: in vivo
[9] = Ratio of unbound maximal portal vein concentration in human at 50 mg, iv to inhibition of human OCT1 expressed in HEK293 cells assessed as reduction in ASP+ substrate uptake by microplate reader based analysis; assay type: ADME, organism-based; conditions: in vivo
[10] = Cmax in human at 50 mg, po; assay type: ADME; set-up: dose 50 mg, route oral; conditions: in vivo
[11] = Unbound Cmax in human at 50 mg, po; assay type: ADME; conditions: in vivo
[12] = Unbound maximal portal vein concentration of in human at 50 mg, po; assay type: ADME, tissue-based; conditions: in vivo
[13] = Ratio of unbound Cmax in human at 50 mg, po to inhibition of human OCT1 expressed in HEK293 cells assessed as reduction in ASP+ substrate uptake by microplate reader based analysis; assay type: ADME, organism-based; conditions: in vivo
[14] = Ratio of unbound maximal portal vein concentration in human at 50 mg, po to inhibition of human OCT1 expressed in HEK293 cells assessed as reduction in ASP+ substrate uptake by microplate reader based analysis; assay type: ADME, organism-based; conditions: in vivo
[15] = in vitro; conditions: PAMPA
Description: Passive membrane permeability by LC-MS/MS analysis based PAMPA

[16] = Cmax in human at 60 mg, po; assay type: ADME; set-up: dose 60 mg, route oral; conditions: in vivo
[17] = Unbound Cmax in human at 60 mg, po; assay type: ADME; conditions: in vivo
[18] = Unbound maximal portal vein concentration of in human at 60 mg, po; assay type: ADME, tissue-based; conditions: in vivo
[19] = Ratio of unbound Cmax in human at 60 mg, po to inhibition of human OCT1 expressed in HEK293 cells assessed as reduction in ASP+ substrate uptake by microplate reader based analysis; assay type: ADME, organism-based; conditions: in vivo
[20] = Ratio of unbound maximal portal vein concentration in human at 60 mg, po to inhibition of human OCT1 expressed in HEK293 cells assessed as reduction in ASP+ substrate uptake by microplate reader based analysis; assay type: ADME, organism-based; conditions: in vivo
[21] = biological target: T2, Solute carrier family 22 member 1; assay: Substrate activity at OCT1 in primary human hepatocytes assessed as increase in compound uptake at 0.1 uM incubated for 2 mins by LC-MS/MS analysis relative to control; assay type: cell-based
[22] = test system: HEK293; assay: Substrate activity at human OCT1*2 allele mutant expressed in HEK293 cells assessed as increase in compound uptake at 0.1 uM incubated for 2 mins by LC-MS/MS analysis relative to control empty vector transfected cells; assay type: cell-based
[23] = test system: HEK293; assay: Substrate activity at human OCT1*3 allele mutant expressed in HEK293 cells assessed as increase in compound uptake at 0.1 uM incubated for 2 mins by LC-MS/MS analysis relative to control empty vector transfected cells; assay type: cell-based
[24] = test system: HEK293; assay: Substrate activity at human OCT1*4 allele mutant expressed in HEK293 cells assessed as increase in compound uptake at 0.1 uM incubated for 2 mins by LC-MS/MS analysis relative to control empty vector transfected cells; assay type: cell-based
[25] = test system: HEK293; assay: Substrate activity at human OCT1*6 allele mutant expressed in HEK293 cells assessed as increase in compound uptake at 0.1 uM incubated for 2 mins by LC-MS/MS analysis relative to control empty vector transfected cells; assay type: cell-based
[26] = test system: HEK293; assay: Substrate activity at human OCT1*8 allele mutant expressed in HEK293 cells assessed as increase in compound uptake at 0.1 uM incubated for 2 mins by LC-MS/MS analysis relative to control empty vector transfected cells; assay type: cell-based
[27] = test system: HEK293; assay: Substrate activity at human OCT1*7 allele mutant expressed in HEK293 cells assessed as increase in compound uptake at 0.1 uM incubated for 2 mins by LC-MS/MS analysis relative to control empty vector transfected cells; assay type: cell-based
[28] = Cmax in human at 4 mg, po; assay type: ADME; set-up: dose 4 mg, route oral; conditions: in vivo
[29] = Unbound Cmax in human at 4 mg, po; assay type: ADME; conditions: in vivo
[30] = Unbound maximal portal vein concentration of in human at 4 mg, po; assay type: ADME, tissue-based; conditions: in vivo
[31] = biological target: T2, Solute carrier family 22 member 1; assay: Substrate activity at human OCT1 expressed in HEK293 cells assessed as increase in compound uptake by measuring Vmax incubated for 2 mins by LC-MS/MS analysis based Michaelis-Menten plot analysis relative to control empty vector transfected cells; assay type: cell-based; conditions: hek293, 2 min
[32] = biological target: T1, OCT1 (SLC22A1); assay: Substrate activity at human OCT1 expressed in HEK293 cells assessed as increase in compound uptake by measuring Km incubated for 2 mins by LC-MS/MS analysis based Michaelis-Menten plot analysis relative to control empty vector transfected cells; assay type: cell-based; conditions: HEK293 cells that express human OCT1
[33] = test system: HEK293; assay: Substrate activity at human OCT1*5 allele mutant expressed in HEK293 cells assessed as increase in compound uptake at 0.1 uM incubated for 2 mins by LC-MS/MS analysis relative to control empty vector transfected cells; assay type: cell-based
[34] = Intrinsic clearance in human liver microsomes; assay type: ADME, Microsome; conditions: read-out: CLH
[35] = Cmax in human at 450 mg, po; assay type: ADME; set-up: dose 450 mg, route oral; conditions: in vivo
[36] = Unbound Cmax in human at 450 mg, po; assay type: ADME; conditions: in vivo
[37] = Unbound maximal portal vein concentration of in human at 450 mg, po; assay type: ADME, tissue-based; conditions: in vivo
[38] = Cmax in human at 50 mg, po dosed as slow release formulation; conditions: in vivo
[39] = Cmax in human at 10 mg, iv; conditions: in vivo
[40] = Cmax in human at 10 mg, im; conditions: in vivo
[41] = Cmax in human at 10 mg, po dosed as immediate release formulation; conditions: in vivo
[42] = Cmax in human at 10 mg, po dosed as controlled release formulation; assay type: ADME, organism-based; set-up: dose 10 mg, route oral; conditions: in vivo
[43] = Unbound Cmax in human at 10 mg, po dosed as controlled release formulation; assay type: ADME, organism-based; conditions: in vivo
[44] = Unbound maximal portal vein concentration of in human at 10 mg, po dosed as controlled release formulation; assay type: ADME, organism-based; conditions: in vivo
[45] = Ratio of unbound Cmax in human at 10 mg, po dosed as controlled release formulation to inhibition of human OCT1 expressed in HEK293 cells assessed as reduction in ASP+ substrate uptake by microplate reader based analysis; assay type: ADME, organism-based; conditions: in vivo
[46] = Ratio of unbound maximal portal vein concentration in human at 10 mg, po dosed as controlled release formulation to inhibition of human OCT1 expressed in HEK293 cells assessed as reduction in ASP+ substrate uptake by microplate reader based analysis; assay type: ADME, organism-based; conditions: in vivo
[47] = Cmax in human at 5 mg, po dosed as immediate release formulation; assay type: ADME, organism-based; set-up: dose 5 mg, route oral; conditions: in vivo
[48] = Unbound Cmax in human at 5 mg, po dosed as immediate release formulation; assay type: ADME, organism-based; conditions: in vivo
[49] = Unbound maximal portal vein concentration of in human at 5 mg, po dosed as immediate release formulation; assay type: ADME, organism-based; conditions: in vivo
[50] = Ratio of unbound Cmax in human at 5 mg, po dosed as immediate release formulation to inhibition of human OCT1 expressed in HEK293 cells assessed as reduction in ASP+ substrate uptake by microplate reader based analysis; assay type: ADME, organism-based; conditions: in vivo
[51] = Ratio of unbound maximal portal vein concentration in human at 5 mg, po dosed as immediate release formulation to inhibition of human OCT1 expressed in HEK293 cells assessed as reduction in ASP+ substrate uptake by microplate reader based analysis; assay type: ADME, organism-based; conditions: in vivo

CCOC(=O)[C@@]1(c2ccccc2)CCC=C[C@@H]1N(C)C
uptake ratio at 2 min, 0.05 µM [1]: 1.3 | uptake ratio at 2 min, 0.1 µM [2]: 1.3 | uptake ratio at 2 min, 0.5 µM [3]: 1.3 | IC50 [4]: 38.7 µM | Cmax [5]: 3310 nM | fCmax [6]: 2.49 µM | fCmax [7]: 10.58 µM | Ratio [8]: 0.064 | Ratio [9]: 0.273 | Cmax [10]: 110 nM | fCmax [11]: 0.08 µM | fCmax [12]: 8.18 µM | Ratio [13]: 0.002 | Ratio [14]: 0.211 | Papp [15]: 31.6 ×10⁻⁶ cm/s

COc1ccc2c(c1)[C@]13CCCC[C@@H]1[C@H](C2)N(C)CC3 [DEXTROMETHORPHAN]
uptake ratio at 2 min, 0.05 µM [1]: 1.1 | uptake ratio at 2 min, 0.1 µM [2]: 1.3 | uptake ratio at 2 min, 0.5 µM [3]: 0.8 | IC50 [4]: 15 to 15.1 µM | Cmax [16]: 20 nM | fCmax [17]: 0.007 µM | fCmax [18]: 4.57 µM | Ratio [19]: 0.0004 | Ratio [20]: 0.302 | Papp [15]: 63.7 ×10⁻⁶ cm/s

CN1CC[C@]23c4c5ccc(O)c4O[C@H]2C(=O)CC[C@H]3[C@H]1C5 [HYDROMORPHONE]
fold change (FC) [21]: 1.7 | Activity [22]: inactive | Activity [23]: inactive | Activity [24]: inactive | Activity [25]: inactive | Activity [26]: Active | Activity [27]: Active | IC50 [4]: 138 µM | Cmax [28]: 40 nM | fCmax [29]: 0.03 µM | fCmax [30]: 0.72 µM

C[N+]1(CC2CC2)CC[C@]23c4c5ccc(O)c4O[C@H]2C(=O)CC[C@@]3(O)[C@H]1C5 (stereo not given in full) [METHYLNALTREXONE]
Vmax [31]: 371.9 pmol/min/mg | Km at 2 min [32]: 20 to 20.3 µM | Activity [22]: inactive | Activity [23]: inactive | Activity [24]: inactive | Activity [33]: inactive | Activity [25]: inactive | Activity [26]: Active | Activity [27]: Active | IC50 [4]: 234 µM | microsomal CLint [34]: 32 µL/min/mg | Cmax [35]: 140 nM | fCmax [36]: 0.12 µM | fCmax [37]: 64.93 µM

CN1CC[C@]23c4c5ccc(O)c4O[C@H]2[C@@H](O)C=C[C@H]3[C@H]1C5 [MORPHINE]
IC50 [4]: 71.8 to 72 µM | Cmax [38]: 30 nM | Cmax [39]: 1050 nM | Cmax [40]: 250 nM | Cmax [41]: 40 nM

COc1ccc2c3c1O[C@H]1C(=O)CC[C@@]4(O)[C@@H](C2)N(C)CC[C@]314 [OXYCODONE]
uptake ratio at 2 min, 0.05 µM [1]: 0.9 | uptake ratio at 2 min, 0.1 µM [2]: 0.8 | uptake ratio at 2 min, 0.5 µM [3]: 0.9 | IC50 [4]: 2000 µM | Cmax [42]: 50 nM | fCmax [43]: 0.03 µM | fCmax [44]: 1.06 µM | Ratio [45]: 0.00001 | Ratio [46]: 0.001 | Cmax [47]: 50 nM | fCmax [48]: 0.03 µM | fCmax [49]: 0.54 µM | Ratio [50]: 0.00001 | Ratio [51]: 0.0003 | Papp [15]: 17.9 ×10⁻⁶ cm/s
